The assay addresses DNA topoisomerase 2-alpha (Homo sapiens, UniProt P11388). Briefly: Topoisomerase IIα Relaxation Assay. Particulars: pH 7.9. How it is done:
Relaxation of negatively supercoiled plasmid DNA by human topoisomerase IIα was assayed in 20 µL of reaction buffer (10 mM Tris-HCl, pH 7.9, 150 mM NaCl, 0.1% BSA, 0.1 mM spermidine, 5% glycerol and ATP) containing 250 ng of supercoiledpHOT1 plasmid DNA and 1 unit of enzyme. After incubation at 37 °C for 30 min, the reactions were terminated and analysed by agarose gel electrophoresis. The ethidium bromide-stained gel was photographed over UV light for densitometry analysis.
DNA topoisomerase 2-alpha, sequence (P11388 whole entry): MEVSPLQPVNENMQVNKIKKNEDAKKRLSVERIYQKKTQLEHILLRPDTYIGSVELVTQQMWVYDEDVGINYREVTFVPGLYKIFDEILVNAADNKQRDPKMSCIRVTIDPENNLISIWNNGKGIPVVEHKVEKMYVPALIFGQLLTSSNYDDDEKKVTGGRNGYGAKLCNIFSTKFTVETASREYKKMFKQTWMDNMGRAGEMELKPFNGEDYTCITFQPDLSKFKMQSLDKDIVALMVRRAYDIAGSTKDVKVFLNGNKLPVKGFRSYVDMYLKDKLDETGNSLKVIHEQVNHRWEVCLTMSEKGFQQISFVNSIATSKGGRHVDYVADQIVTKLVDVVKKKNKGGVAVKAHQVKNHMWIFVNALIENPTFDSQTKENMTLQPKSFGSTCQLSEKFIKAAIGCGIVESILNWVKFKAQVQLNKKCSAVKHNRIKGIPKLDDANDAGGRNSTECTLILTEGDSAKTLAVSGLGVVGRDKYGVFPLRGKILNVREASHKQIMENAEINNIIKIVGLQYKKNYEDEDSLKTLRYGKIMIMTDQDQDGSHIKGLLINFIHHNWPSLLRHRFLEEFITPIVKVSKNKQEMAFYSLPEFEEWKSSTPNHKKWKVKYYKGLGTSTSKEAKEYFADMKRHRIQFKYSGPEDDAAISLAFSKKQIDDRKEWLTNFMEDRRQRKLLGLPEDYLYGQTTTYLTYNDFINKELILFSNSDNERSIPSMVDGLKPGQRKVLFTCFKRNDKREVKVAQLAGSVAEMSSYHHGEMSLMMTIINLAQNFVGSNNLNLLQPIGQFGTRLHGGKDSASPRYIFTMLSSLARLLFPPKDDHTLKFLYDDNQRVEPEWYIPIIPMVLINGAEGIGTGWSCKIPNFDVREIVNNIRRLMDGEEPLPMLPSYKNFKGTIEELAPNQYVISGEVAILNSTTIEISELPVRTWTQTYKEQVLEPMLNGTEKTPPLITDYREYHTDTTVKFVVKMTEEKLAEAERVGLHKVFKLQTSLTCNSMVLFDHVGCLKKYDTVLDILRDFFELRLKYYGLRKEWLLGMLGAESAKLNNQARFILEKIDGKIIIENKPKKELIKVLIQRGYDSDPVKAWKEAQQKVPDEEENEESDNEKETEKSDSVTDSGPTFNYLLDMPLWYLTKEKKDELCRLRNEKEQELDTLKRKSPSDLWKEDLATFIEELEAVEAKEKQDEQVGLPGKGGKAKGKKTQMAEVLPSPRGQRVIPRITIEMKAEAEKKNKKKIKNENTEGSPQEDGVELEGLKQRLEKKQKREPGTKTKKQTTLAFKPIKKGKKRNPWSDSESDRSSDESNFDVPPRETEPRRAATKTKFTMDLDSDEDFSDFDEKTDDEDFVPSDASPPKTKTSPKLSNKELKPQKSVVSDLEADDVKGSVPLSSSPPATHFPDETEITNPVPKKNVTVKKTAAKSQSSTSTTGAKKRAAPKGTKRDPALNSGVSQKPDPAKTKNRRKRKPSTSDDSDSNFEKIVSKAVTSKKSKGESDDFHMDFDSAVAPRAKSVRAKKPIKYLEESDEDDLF
What is called IC50 is the concentration that gives 50% inhibition. In the case of `NC(=S)N1N=C(c2cccnc2)CC1c1cn(-c2ccccc2)nc1-c1cccc(Br)c1` (centres undefined) [5-(3-(3-Bromophenyl)-1-phenyl-1H-pyrazol-4-yl)-3-(pyridin-3-yl)-4,5-dihydropyrazole-1-carbothioamide (6d)], half-maximal inhibition (IC50) required 457 µM.
As for `NC(=S)N1N=C(c2cccnc2)CC1c1cn(-c2ccccc2)nc1-c1ccc(F)cc1` (centres undefined) [5-(3-(4-Fluorophenyl)-1-phenyl-1H-pyrazol-4-yl)-3-(pyridin-3-yl)-4,5-dihydropyrazole-1-carbothioamide (6b)], it took 272 µM to reach half-maximal inhibition (IC50).
`CCOC(=O)C1C(=O)C=C(c2cn(-c3ccccc3)nc2-c2ccccc2)CC1c1cccnc1` (centres undefined) [Ethyl 4-(1,3-diphenyl-1H-Pyrazol-4-yl)-2-oxo-6-(pyridin-3-yl)cyclohex-3-enecarboxylate (5a)] showed a concentration for half-maximal inhibition (IC50) of 222 µM.
As for `NC(=S)N1N=C(c2cccnc2)CC1c1cn(-c2ccccc2)nc1-c1cccc([N+](=O)[O-])c1` (centres undefined) [5-(3-(3-Nitrophenyl)-1-phenyl-1H-pyrazol-4-yl)-3-(pyridin-3-yl)-4,5-dihydropyrazole-1-carbothioamide (6f)], the figure is 445 µM; as for `CCOC(=O)C1C(=O)C=C(c2cn(-c3ccccc3)nc2-c2cccc(Br)c2)CC1c1cccnc1` (centres undefined) [Ethyl 4-(3-(3-bromophenyl)-1-phenyl-1H-pyrazol-4-yl)-2-oxo-6-(pyridin-3-yl)cyclohex-3-enecarboxylate (5d)], less than 100 µM; as for `NC(=S)N1N=C(c2cccnc2)CC1c1cn(-c2ccccc2)nc1-c1ccc(Br)cc1` (centres undefined) [5-(3-(4-Bromophenyl)-1-phenyl-1H-pyrazol-4-yl)-3-(pyridin-3-yl)-4,5-dihydropyrazole-1-carbothioamide (6e)], 703 µM.
The molecule `CCOC(=O)C1C(=O)C=C(c2cn(-c3ccccc3)nc2-c2ccc(OC)cc2)CC1c1cccnc1` (centres undefined) [Ethyl 4-(3-(4-methoxyphenyl)-1-phenyl-1H-pyrazol-4-yl)-2-oxo-6-(pyridin-3-yl)cyclohex-3-enecarboxylate (5i)] gave an IC50 of 428 µM.
In the case of `CCOC(=O)C1C(=O)C=C(c2cn(-c3ccccc3)nc2-c2ccc(C)cc2)CC1c1cccnc1` (centres undefined) [Ethyl 2-oxo-4-(1-phenyl-3-p-tolyl-1H-pyrazol-4-yl)-6-(pyridin-3-yl)cyclohex-3-enecarboxylate (5h)] it was 395 µM.
Molecule `NC(=S)N1N=C(c2cccnc2)CC1c1cn(-c2ccccc2)nc1-c1ccccc1` (centres undefined) [5-(1,3-Diphenyl-1H-pyrazol-4-yl)-3-(pyridin-3-yl)-4,5-dihydropyrazole-1-carbothioamide (6a)] had an IC50 of 245 µM.
In turn, `CCOC(=O)C1C(=O)C=C(c2cn(-c3ccccc3)nc2-c2cccc([N+](=O)[O-])c2)CC1c1cccnc1` (centres undefined) [Ethyl 4-(3-(3-nitrophenyl)-1-phenyl-1H-pyrazol-4-yl)-2-oxo-6-(pyridin-3-yl)cyclohex-3-enecarboxylate (5f)] returned an IC50 of less than 100 µM.
For the molecule `CCOC(=O)C1C(=O)C=C(c2cn(-c3ccccc3)nc2-c2ccc(F)cc2)CC1c1cccnc1` (centres undefined) [Ethyl 4-(3-(4-fluorophenyl)-1-phenyl-1H-pyrazol-4-yl)-2-oxo-6-(pyridin-3-yl)cyclohex-3-enecarboxylate (5b)], the IC50 is less than 100 µM.
Turning to `NC(=S)N1N=C(c2cccnc2)CC1c1cn(-c2ccccc2)nc1-c1ccc(Cl)cc1` (centres undefined) [5-(3-(4-Chlorophenyl)-1-phenyl-1H-pyrazol-4-yl)-3-(pyridin-3-yl)-4,5-dihydropyrazole-1-carbothioamide (6c)], the IC50 amounted to 406 µM.
In the case of `CCOC(=O)C1C(=O)C=C(c2cn(-c3ccccc3)nc2-c2ccc(Cl)cc2)CC1c1cccnc1` (centres undefined) [Ethyl 4-(3-(4-chlorophenyl)-1-phenyl-1H-pyrazol-4-yl)-2-oxo-6-(pyridin-3-yl)cyclohex-3-enecarboxylate (5c)] it was less than 100 µM; in that of `CCOC(=O)C1C(=O)C=C(c2cn(-c3ccccc3)nc2-c2ccc([N+](=O)[O-])cc2)CC1c1cccnc1` (centres undefined) [Ethyl 4-(3-(4-nitrophenyl)-1-phenyl-1H-pyrazol-4-yl)-2-oxo-6-(pyridin-3-yl)cyclohex-3-enecarboxylate (5g)], 256 µM.

The values above are taken from BindingDB's records for doi:10.1016/j.bioorg.2016.10.001 (Jamia Millia Islamia (A Central University), 2016).
